The values below come from article PMC10020352 (Frontiers in Pharmacology, 2023).

The target of one data set is T1, MOP receptor (Homo sapiens, UniProt P35372).
T1 construct: expressed in transfected cells; host or cells: HEK293
The experiment in a line: cell-based.

A further data set addresses T2, DOP receptor (Homo sapiens, UniProt P41143).
T2 construct: expressed in transfected cells; host or cells: HEK293
The data set is described as follows: cell-based.

Data set [1] deals with T3, bovine pancreatic trypsin (Bos taurus, UniProt P00760).
T3 sequence (P00760 24-246): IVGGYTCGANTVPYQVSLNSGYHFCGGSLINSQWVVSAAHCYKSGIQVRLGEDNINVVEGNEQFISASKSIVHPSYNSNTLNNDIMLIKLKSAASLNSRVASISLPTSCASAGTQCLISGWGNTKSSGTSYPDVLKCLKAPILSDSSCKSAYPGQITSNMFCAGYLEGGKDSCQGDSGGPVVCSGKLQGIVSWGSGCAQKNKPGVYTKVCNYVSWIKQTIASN
The experiment in a line: Metabolic stability in trypsin. The settings on record: bovine pancreatic trypsin 2.5 μg/mL, pH 8-8.5, 37°C, peptide 100 μM; read-out: Stability (t1/2) Trypsin. The format is in vitro ADME. Here is the method:
(§1) Whole blood was collected in-house from adult mixed-gender Wistar rats (RRID: RGD_150520162), and plasma was prepared in 0.2% EDTA as per standard practice. Peptides (final 100 μM) were incubated with pooled rat plasma at 37°C. Samples were collected at different time intervals 0, 5, 10, 15, 30, 60, and 120 min. At each time point, collected samples were immediately added to three volumes of cold ACN. This mixture was vortexed for 30 s and then centrifuged at room temperature (13 K rpm, 5 min). The supernatant was taken and directly placed in glass HPLC vials for LCMS analysis. The protocol for the trypsin stability assay was as for the plasma stability assay except for the […] (bovine pancreatic trypsin 2.5 μg/mL in NH4HCO3 buffer, approx. pH 8–8.5, 37°C).
(§2) Relative concentrations of each peptide from stability assays in plasma or trypsin were analysed using an Agilent binary LC system consisting of an Agilent 1290 Infinity LC pump, Agilent 1,290 auto-sampler coupled with Triple Quad Mass-Spectrometer (MS, model 6460, Agilent Technologies). A bidentate C18 HPLC column (Cogent, 100 Å, […]) with a binary solvent gradient composed of Solvent: A 0.1%v/v formic acid in MQ water and Solvent B: 0.1% v/v formic acid in ACN was used for the separation. The MS parameters were optimised for all compounds to obtain the highest signal in positive Total Ion Current (TIC) mode. Data were analysed using a combination of Microsoft Excel and GraphPad Prism software packages. Data was normalised to time point zero (immediately after compound addition) and expressed in percentages from t = 0. Half-lives were calculated in GraphPad Prism software (v8.3).

The target in a further data set is KOP receptor (Homo sapiens, UniProt P41145). The data set is described as follows: cell-based. The data set is classed as cell-based.
A short description of data set [2]: Metabolic stability in rat plasma. The data set is classed as in vitro ADME. As to conditions: pooled rat plasma, 37°C, peptide 100 μM; for half-life: rat, plasma, read-out: Stability (t1/2) Plasma. The protocol:
as §1, §2

Where a SMILES comes first, the peptide text is derived from it. [ ]: non-standard residue; d: D form. Phe(4-NO2) = N[C@@H](Cc1ccc([N+](=O)[O-])cc1)C(=O)O; Phe(4-Cl) = N[C@@H](Cc1ccc(Cl)cc1)C(=O)O; Phe(4-F) = N[C@@H](Cc1ccc(F)cc1)C(=O)O; NMeR = CN[C@@H](CCCNC(=N)N)C(=O)O; Aoc = NCCCCCCCC(=O)O; Sar = CNCC(=O)O

T1 sequence (P35372 whole entry): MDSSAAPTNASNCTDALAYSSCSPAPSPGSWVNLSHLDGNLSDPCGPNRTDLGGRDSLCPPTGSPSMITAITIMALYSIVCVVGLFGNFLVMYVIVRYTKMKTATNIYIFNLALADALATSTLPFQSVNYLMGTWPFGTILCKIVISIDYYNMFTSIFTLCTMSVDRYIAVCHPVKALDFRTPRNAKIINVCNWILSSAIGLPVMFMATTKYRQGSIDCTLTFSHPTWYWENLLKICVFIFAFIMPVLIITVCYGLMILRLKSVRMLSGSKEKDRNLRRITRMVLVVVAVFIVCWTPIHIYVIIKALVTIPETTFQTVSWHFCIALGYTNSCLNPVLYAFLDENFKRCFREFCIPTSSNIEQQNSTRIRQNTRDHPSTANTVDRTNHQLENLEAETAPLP
T2 sequence (P41143 whole entry): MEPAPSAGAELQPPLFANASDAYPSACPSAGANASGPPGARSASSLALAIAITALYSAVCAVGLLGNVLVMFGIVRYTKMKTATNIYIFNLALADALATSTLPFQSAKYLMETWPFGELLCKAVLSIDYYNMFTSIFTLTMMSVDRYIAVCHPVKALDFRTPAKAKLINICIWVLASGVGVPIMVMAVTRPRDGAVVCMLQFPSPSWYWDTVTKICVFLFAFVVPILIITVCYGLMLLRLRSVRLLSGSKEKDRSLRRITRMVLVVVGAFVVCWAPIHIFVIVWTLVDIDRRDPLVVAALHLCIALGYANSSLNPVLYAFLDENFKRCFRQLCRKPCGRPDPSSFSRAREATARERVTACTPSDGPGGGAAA
KOP receptor, sequence (P41145 whole entry): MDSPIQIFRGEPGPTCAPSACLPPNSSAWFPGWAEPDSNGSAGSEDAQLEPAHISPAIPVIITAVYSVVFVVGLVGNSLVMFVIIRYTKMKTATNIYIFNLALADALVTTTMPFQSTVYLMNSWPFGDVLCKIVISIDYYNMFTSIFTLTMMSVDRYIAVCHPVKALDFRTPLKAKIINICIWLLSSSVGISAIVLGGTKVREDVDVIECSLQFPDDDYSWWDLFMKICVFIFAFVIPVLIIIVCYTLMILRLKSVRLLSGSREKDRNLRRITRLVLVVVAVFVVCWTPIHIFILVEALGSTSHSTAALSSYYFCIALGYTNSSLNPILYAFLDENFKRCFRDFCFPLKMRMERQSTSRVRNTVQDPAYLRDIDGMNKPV

Turning to `CC(C)C[C@H](NC(=O)[C@H](Cc1ccc([N+](=O)[O-])cc1)NC(=O)CNC(=O)CNC(=O)[C@@H](N)Cc1ccc(O)cc1)C(=O)N[C@@H](CCCNC(=N)N)C(=O)N[C@H](CCCNC(=N)N)C(N)=O` [KA201], the EC50 on MOP receptor was 1.72 µM; at DOP receptor, 2.18 µM; on KOP receptor, 1.09 µM. Moreover, the “Selectivity (fold) KOP/DOP” value on MOP receptor and at DOP receptor was 2 fold in each case. The half-life in data set [1] came out at 6.4 min.

In the case of `CC(C)C[C@H](NC(=O)[C@H](Cc1ccc(F)cc1)NC(=O)CN(C)C(=O)[C@@H](N)Cc1ccc(O)cc1)C(=O)N[C@@H](CCCNC(=N)N)C(=O)N[C@H](CCCNC(=N)N)C(N)=O` [KA207] (H-Y[Sar][Phe(4-F)]LR[dR]-NH2), the results for the half-maximal effective concentration (EC50) at MOP receptor, on DOP receptor and at KOP receptor were 3.45 µM, greater than 10 µM and 0.0067 µM, respectively. The “Selectivity (fold) KOP/DOP” value at MOP receptor was 515 fold. Besides, the half-life in data set [1] came out at 7.6 min; in data set [2] it was 38.2 min.

With `CC(C)C[C@H](NC(=O)[C@H](Cc1ccc([N+](=O)[O-])cc1)NC(=O)CN(C)C(=O)[C@@H](N)Cc1ccc(O)cc1)C(=O)N(C)[C@@H](CCCNC(=N)N)C(=O)N[C@H](CCCNC(=N)N)C(N)=O` [KA303] (H-Y[Sar][Phe(4-NO2)]L[NMeR][dR]-NH2), the EC50 at MOP receptor was greater than 10 µM; on DOP receptor, 1.32 µM; at KOP receptor, 0.0135 µM. Besides, the “Selectivity (fold) KOP/DOP” value at DOP receptor was determined as 98 fold. Besides, the half-life in data set [1] turned out to be 12.1 min; in data set [2], 168 min.

For the compound `CC(C)C[C@H](NC(=O)[C@H](Cc1ccc([N+](=O)[O-])cc1)NC(=O)CN(C)C(=O)[C@@H](N)Cc1ccc(O)cc1)C(=O)N[C@@H](CCCNC(=N)N)C(=O)N(C)[C@@H](CCCNC(=N)N)C(N)=O` [KA310] (H-Y[Sar][Phe(4-NO2)]LR[NMeR]-NH2), the EC50 is greater than 10 µM at MOP receptor, greater than 10 µM on DOP receptor and 0.00177 µM on KOP receptor. For the same compound, the half-life in data set [1] was greater than 1000 min. The “selectivity for KOP receptor over MOP receptor and DOP receptor” value on KOP receptor was greater than 1000 fold.

With `CC(C)C[C@H](NC(=O)[C@H](Cc1ccc(Cl)cc1)NC(=O)CN(C)C(=O)[C@@H](N)Cc1ccc(O)cc1)C(=O)N[C@@H](CCCCN)C(=O)N[C@H](CCCNC(=N)N)C(N)=O` [KA306] (H-Y[Sar][Phe(4-Cl)]LK[dR]-NH2), the EC50 at MOP receptor is greater than 10 µM; at DOP receptor, greater than 10 µM; at KOP receptor it was 0.026 µM. Moreover, the half-life came out at 69.9 min in data set [1] and 160 min in data set [2].

`CC(C)C[C@@H](NC(=O)[C@@H](Cc1ccccc1)NC(=O)[C@H](N)Cc1ccccc1)C(=O)N[C@H](CCCCN)C(=O)N1CCC(N)(C(=O)O)CC1` [CR845, reference compound]: in data set [1], the half-life was greater than 1000 min.

With `CC(C)C[C@H](NC(=O)[C@H](Cc1ccc([N+](=O)[O-])cc1)NC(=O)CN(C)C(=O)[C@@H](N)Cc1ccc(O)cc1)C(=O)N[C@@H](CCCNC(=N)N)C(=O)N[C@H](CCCNC(=N)N)C(=O)NCCCCCCCC(N)=O` [KA314] (H-Y[Sar][Phe(4-NO2)]LR[dR][Aoc]-NH2), the EC50 was greater than 10 µM on MOP receptor, greater than 10 µM at DOP receptor and 0.00249 µM at KOP receptor. Also, the values for the half-life in data set [1] and in data set [2] were 16.1 min and 18.6 min, respectively.

Regarding `CC(C)C[C@H](NC(=O)[C@H](Cc1ccc(Cl)cc1)NC(=O)CN(C)C(=O)[C@@H](N)Cc1ccc(O)cc1)C(=O)N(C)[C@@H](CCCNC(=N)N)C(=O)N[C@H](CCCNC(=N)N)C(N)=O` [KA301] (H-Y[Sar][Phe(4-Cl)]L[NMeR][dR]-NH2), the half-life in data set [2] is 2240 min.

On to `CC(C)C[C@H](NC(=O)[C@H](Cc1ccc([N+](=O)[O-])cc1)NC(=O)CN(C)C(=O)[C@@H](N)Cc1ccc(O)cc1)C(=O)N[C@H](CCCNC(=N)N)C(=O)N[C@@H](CCCNC(=N)N)C(N)=O` [KA205] (H-Y[Sar][Phe(4-NO2)]L[dR]R-NH2), for which the EC50 is greater than 10 µM on MOP receptor, 3.92 µM on DOP receptor and 1.8 µM on KOP receptor. Further, the “Selectivity (fold) KOP/DOP” value at DOP receptor was determined as 2 fold. Also, the half-life in data set [1] was determined as 3260 min; in data set [2], 28.7 min.

In the case of `CC(C)C[C@H](NC(=O)[C@H](Cc1ccccc1)NC(=O)CN(C)C(=O)[C@@H](N)Cc1ccc(O)cc1)C(=O)N[C@@H](CCCNC(=N)N)C(=O)N[C@H](CCCNC(=N)N)C(N)=O` [KA203] (H-Y[Sar]FLR[dR]-NH2), the EC50 was greater than 10 µM on MOP receptor, greater than 10 µM at DOP receptor and 0.0747 µM on KOP receptor. Further, the half-life is 13.6 min in data set [1] and 72 min in data set [2].

With `CC(C)C[C@H](NC(=O)[C@H](Cc1ccc(Cl)cc1)NC(=O)CN(C)C(=O)[C@@H](N)Cc1ccc(O)cc1)C(=O)N[C@@H](CCCNC(=N)N)C(=O)N(C)[C@@H](CCCNC(=N)N)C(=O)NCCCCCCCC(N)=O` [KA312] (H-Y[Sar][Phe(4-Cl)]LR[NMeR][Aoc]-NH2), the EC50 was greater than 10 µM at MOP receptor, greater than 10 µM on DOP receptor and 0.00379 µM on KOP receptor. Also, the half-life in data set [1] amounted to 445 min; in data set [2] it was 15.6 min.

With `CC(C)C[C@H](NC(=O)[C@H](Cc1ccc([N+](=O)[O-])cc1)NC(=O)CNC(=O)CN(C)C(=O)[C@@H](N)Cc1ccc(O)cc1)C(=O)N[C@@H](CCCNC(=N)N)C(=O)N[C@H](CCCNC(=N)N)C(N)=O` [KA202], the EC50 at MOP receptor was greater than 10 µM; on DOP receptor, greater than 10 µM; on KOP receptor it was 0.93 µM. The half-life in data set [1] was 8.5 min.

In the case of `CC(C)C[C@H](NC(=O)[C@H](Cc1ccc(Cl)cc1)NC(=O)CN(C)C(=O)[C@@H](N)Cc1ccc(O)cc1)C(=O)N[C@@H](CCCNC(=N)N)C(=O)N(C)[C@@H](CCCNC(=N)N)C(N)=O` [KA309] (H-Y[Sar][Phe(4-Cl)]LR[NMeR]-NH2), the EC50 at MOP receptor was greater than 10 µM; at DOP receptor it was greater than 10 µM; on KOP receptor, 0.0039 µM. Moreover, the half-life in data set [1] is greater than 1000 min. For the same compound, the “Stability (t1/2) Plasma” value in data set [2] is listed as 174.1 min.

In the case of `CC(C)C[C@H](NC(=O)[C@H](Cc1ccc(Cl)cc1)NC(=O)CN(C)C(=O)[C@@H](N)Cc1ccc(O)cc1)C(=O)N[C@@H](CCCNC(=N)N)C(=O)N[C@H](CCCNC(=N)N)C(N)=O` [KA206] (H-Y[Sar][Phe(4-Cl)]LR[dR]-NH2), the EC50 was greater than 10 µM at MOP receptor, greater than 10 µM at DOP receptor and 0.0061 µM on KOP receptor. Further, the values for the half-life in data set [1] and in data set [2] were 15.9 min and 31.9 min, respectively.

On to `CC(C)C[C@H](NC(=O)[C@H](Cc1ccc([N+](=O)[O-])cc1)NC(=O)CN(C)C(=O)[C@@H](N)Cc1ccc(O)cc1)C(=O)N[C@@H](CCCNC(=N)N)C(=O)N(C)[C@@H](CCCNC(=N)N)C(=O)NCCCCCCCC(N)=O` [KA313] (H-Y[Sar][Phe(4-NO2)]LR[NMeR][Aoc]-NH2), for which the values for the EC50 on MOP receptor, on DOP receptor and at KOP receptor were greater than 10 µM, greater than 10 µM and 0.00445 µM, respectively. The values for the half-life in data set [1] and in data set [2] were greater than 1000 min and 12.5 min, respectively.

As to `CC(C)C[C@H](NC(=O)[C@H](Cc1ccc(Cl)cc1)NC(=O)[C@H](C)NC(=O)[C@@H](N)Cc1ccc(O)cc1)C(=O)N[C@@H](CCCNC(=N)N)C(=O)N[C@H](CCCNC(=N)N)C(N)=O` [KA307] (H-YA[Phe(4-Cl)]LR[dR]-NH2), the values for the EC50 on MOP receptor, at DOP receptor and on KOP receptor were 1.87 µM, greater than 10 µM and 1.04 µM, respectively. Further, the “Selectivity (fold) KOP/DOP” value at MOP receptor is on record as 2 fold.

For `CC(C)C[C@H](NC(=O)[C@H](Cc1ccc(F)cc1)NC(=O)CN(C)C(=O)[C@@H](N)Cc1ccc(O)cc1)C(=O)N(C)[C@@H](CCCNC(=N)N)C(=O)N[C@H](CCCNC(=N)N)C(N)=O` [KA302] (H-Y[Sar][Phe(4-F)]L[NMeR][dR]-NH2), the EC50 is 4 µM at MOP receptor, 1.66 µM at DOP receptor and 0.0116 µM on KOP receptor. For the same compound, the “Selectivity (fold) KOP/DOP” value amounted to 344 fold on MOP receptor and 143 fold at DOP receptor. Besides, in data set [1], the half-life was greater than 1000 min. Besides, the “Stability (t1/2) Plasma” value in data set [2] is reported as 323.9 min.

As for `C[C@@H](O)[C@H](NC(=O)[C@H](Cc1ccc(Cl)cc1)NC(=O)CN(C)C(=O)[C@@H](N)Cc1ccc(O)cc1)C(=O)N[C@@H](CCCNC(=N)N)C(=O)N[C@H](CCCNC(=N)N)C(N)=O` [KA308] (H-Y[Sar][Phe(4-Cl)]TR[dR]-NH2), the values for the EC50 on MOP receptor, at DOP receptor and on KOP receptor were 5.82 µM, greater than 10 µM and 0.23 µM, respectively. Moreover, on MOP receptor, the “Selectivity (fold) KOP/DOP” value was found to be 25 fold.

By EC50 is commonly meant the concentration giving half of the maximal effect.
